Patent US20240360134A1, “PYRAZOLOPYRIMIDINES AND THEIR USES AS PDGFR INHIBITORS” (priority 2021, published 2024)
Like-named read-outs stand apart in the source and are kept apart here.

Legend:
[1] = biological target: VEGFR2, unphosphorylated (Homo sapiens (Human), UniProt P35968); assay: VEGFR ADP GLO assay; assay type: biochemical; details: 5 nM VEGFR2, 1.2 mM ATP, 1 mg/mL Srctide, 180 min
Experimental: Assay buffer stock contains 50 mM HEPES pH7.5, 10 mM MgCl2, 0.01% Brij-35, and 1 mM EGTA.
Unphosphorylated VEGFR2. 52.6 μM in 50 mM Tris-HCl, pH 8.0, 50 mM NaCl, 5% Glycerol, 0.5 mM TCEP. Store at −80° C. in aliquots.
10 mg/mL srctide solution, prepared in Assay buffer (Assay buffer stock with 2 mM DTT, 0.1% Pluronic F-127, and 0.1 mg/mL ovalbumin). Sonicate 10 mg/ml Srctide solution for 10 minutes and then vacuum filter.
Assay buffer. Add DTT to 2 mM, Pluronic F-127 to 0.1% and ovalbumin to 0.1 mg/mL to Assay buffer stock.
2× kinase solution. Make a working solution of 10 nM unphosphorylated VEGFR2 in Assay buffer. Vacuum filter 2× kinase solution prior to running assay. Keep on ice until use.
2× substrate/ATP solution. Make a working solution of 2 mg/mL srctide and 2.4 mM ATP in Assay buffer. Keep on ice until use.
Step 1. Dispensing inhibitors/controls: Using Echo, dispense 10 nL/well compound serial dilutions in DMSO to columns 1-22 (in 384-well plates) or columns 1-44 (in 1536-well plates). Dilution series=11 pt, 3-fold dilutions. The top compound concentration in the source plate is 4 mM. The top compound concentration in the assay plate is 10 uM. Using Echo, dispense 10 nl/well DMSO to column 23 (in 384-well plates) or columns 45-47 (in 1536-well plates). These wells will serve as negative control wells Using Echo, dispense 10 nl/well 400 uM TAK-593 in DMSO to column 24 (in 384-well plates) or column 48 (in 1536-well plates). The final concentration of TAK-593 in the assay should be 1 uM. These wells will serve as positive control wells.
Step 2. Pre-incubation of inhibitors with kinase: Add 2 μL/well 2× kinase solution. Centrifuge at 1000 rpm for 1 min. Incubate at room temperature for 30 min.
Step 3. Kinase cascade reaction: Add 2 μL/well 2× substrate/ATP solution to initiate kinase reactions. Centrifuge at 1000 rpm for 1 min. Incubate at room temperature for 180 min.
Final concentrations of components in the assay:
Step 4. Quench: Add 2 uL/well ADP Glo Reagent+0.05% CHAPS. Centrifuge at 1000 rpm for 1 min; Incubate at room temperature for one hour.
Step 5. Detection: Add 2 uL/well Kinase Detection Reagent+0.05% CHAPS. Centrifuge at 1000 rpm for 1 min; Incubate at room temperature for 1 hour; Read Luminescence on a plate reader.
% Inhibition: % Inhibition=(NC−sample)/(NC−PC)*100 where NC is the mean of negative control (reactions without inhibitor), and PC is the mean of positive control (1 μM TAK-593).
IC50 values are determined from a 4-parameter fit, using the following equation: Y=Bottom+(Top−Bottom)/(1+10^(Log IC50-X)*Hill Slope), where X=log10 of the compound concentration; top can be defined by PC; bottom defined by NC.

[2] = biological target: PDGFRβ (Rattus norvegicus (Rat), UniProt Q05030); assay: PDGFRβ Cellular Assay (PDGFRb P-Y751 HTRF, PDGF-BB stimulated A10 cells); assay type: cell-based
Experimental: Cell Culture and Preparation: Cells are cultured according to ATCC procedure (5) with the addition of the antibiotic penicillin-streptomycin. If working from frozen, cells should be thawed according to ATCC procedure. Depending on the cell density of frozen vial, cells will need time to recover from thaw. An 80% confluent T75 flask should be enough for one 384 well plate.
Stock Solutions: Rat PDGFBB. A 100 ug/mL stock is prepared by reconstituting 50 ug in 500 μL of 4 mM HCl and 0.1% BSA. It can be stored for a month at 4° C., or aliquoted out and frozen in the −20/−80° C. to avoid multiple free-thaw cycles.
1× Cisbio cell lysis buffer. The cell lysis buffer is diluted 4-fold with molecular grade water. The blocking agent is then diluted 25-fold in the diluted lysis buffer.
Antibody solutions. Equal amounts d2 and cryptate antibody are diluted 20-fold in detection buffer.
Rat PDGFBB. A working stock of 100 ng/mL is created from the stock solution in 10% FBS culture media.
Step 1: Plating Cells: Media from the A10 cell flask is aspirated. The cells are rinsed with PBS and then trypsinized to disperse the cell layer. The cells are then pelleted are resuspended to 1.25e5 cells/mL. […] Plates are covered and placed in the incubator (37° C. 5% CO2) overnight to allow cells to adhere.
Step 2: Compound Dispense: Approximately 18 hours after plating, dispense 40 nL compound onto cells using Echo. […] The plate is returned to the incubator for 3 hours.
After 10 minutes the media is removed by flicking the plate.
Step 4: Cell lysis and antibody addition: 20 uL lysis buffer per well is added to the plate via Tempest. 5 uL antibody solution is added per well via the Tempest. The plate is placed on the shaker at 230 rpm for 1 hour at room temperature.
Step 5: Detection: The plate is read using the HTRF module on the BMG Pherastar. Data is analyzed using Genedata Screener.
IC50 values are determined from a 4-parameter fit, using the following equation: Y=Bottom+(Top−Bottom)/(1+10((Log IC50−X)*Hill slope)), where X=log10 of the compound concentration; top can be defined by PC; bottom defined by NC.

[3] = biological target: Tb-labeled inactive PDGFRβ (Homo sapiens (Human), UniProt P09619); assay: biochemical; assay type: binding; details: read-out: PDGFR Lantha IC50
[4] = biological target: His6-TEV-PDGFRβ (557-1016) (Homo sapiens (Human), UniProt P09619); assay: PDGFRβ HTRF Assay; assay type: biochemical; details: 800 μM ATP, 0.5 μM TK-substrate biotin peptide, 30 min pre-incubation, 3 hours reaction; read-out: PDGFR HTRF IC50
Experimental: Instrumentation: a. Compound liquid handling: LabCyte Echo; b. Reagent liquid handling: Thermo Scientific Multidrop Combi; c. BMG PHERAStar multilabel plate reader.
Protein Reagent: His6-TEV-PDGFRβ Protein Prep prepared at Accelagen.
Assay buffer stock solution, contains 50 mM Hepes, 10 mM MgCl2, 1 mM EGTA, and 0.01% Brij-35, 0.01% ovalbumin, 2 mM DTT at pH 7.5, in molecular biology grade water. Store at room temperature.
Assay buffer. Dilute 5× Kinase buffer 5-fold with molecular biology grade water and add DTT to 2 mM and ovalbumin to 0.1 mg/mL (or 0.01%).
2× protein solution. Make a working solution of […] PDGFRβ in assay buffer. Keep on ice until use to maintain enzyme stability.
2× substrate solution. Make a working solution of 1.6 mM ATP and 1 μM TK-substrate biotin peptide in assay buffer. 3× quench/detection solution.
Step 2. PDGFRβ E+I pre-incubation: Add 2 μL 2× protein solution to columns 1-24 using the Multidrop Combi. Centrifuge at 1000 rpm for 1 min. Incubate 30 min at RT
Step 2. Enzymatic reaction: Add 2 μL substrate solution to columns 1-24 to initiate the reaction using the Multidrop Combi; cover/seal the assay plate to reduce evaporation. Centrifuge at 1000 rpm for 1 min. Incubate at room temperature for 3 hours.
Final concentrations of components in PDGFRp cascade assay:
0.5 μM TK-substrate biotin peptide
Step 3. Quench/Detection: Add 2 μl 3× quench/detection solution to columns 1-24 using the Multidrop Combi; cover/seal the plate. Centrifuge 1 min 1000 rpm. Incubate at RT for 60 min.
HTRF ratio values calculated by the instrument (Ratio is acceptor counts/donor counts*10,000) is exported from the plate reader and used in data analysis. The exported data will be used to calculate 1) compound activity and 2) assay statistics. […] Assay statistics can include Robust Z′ and Signal to Background.
% Inhibition Calculation: Percent inhibition will be calculated for sample wells based on the equation: […]
IC50 Calculation: For IC50 determination, full 11-point dose response data will be processed using the following equation: […]

Sequence of PDGFRβ (Q05030 whole entry, looked up): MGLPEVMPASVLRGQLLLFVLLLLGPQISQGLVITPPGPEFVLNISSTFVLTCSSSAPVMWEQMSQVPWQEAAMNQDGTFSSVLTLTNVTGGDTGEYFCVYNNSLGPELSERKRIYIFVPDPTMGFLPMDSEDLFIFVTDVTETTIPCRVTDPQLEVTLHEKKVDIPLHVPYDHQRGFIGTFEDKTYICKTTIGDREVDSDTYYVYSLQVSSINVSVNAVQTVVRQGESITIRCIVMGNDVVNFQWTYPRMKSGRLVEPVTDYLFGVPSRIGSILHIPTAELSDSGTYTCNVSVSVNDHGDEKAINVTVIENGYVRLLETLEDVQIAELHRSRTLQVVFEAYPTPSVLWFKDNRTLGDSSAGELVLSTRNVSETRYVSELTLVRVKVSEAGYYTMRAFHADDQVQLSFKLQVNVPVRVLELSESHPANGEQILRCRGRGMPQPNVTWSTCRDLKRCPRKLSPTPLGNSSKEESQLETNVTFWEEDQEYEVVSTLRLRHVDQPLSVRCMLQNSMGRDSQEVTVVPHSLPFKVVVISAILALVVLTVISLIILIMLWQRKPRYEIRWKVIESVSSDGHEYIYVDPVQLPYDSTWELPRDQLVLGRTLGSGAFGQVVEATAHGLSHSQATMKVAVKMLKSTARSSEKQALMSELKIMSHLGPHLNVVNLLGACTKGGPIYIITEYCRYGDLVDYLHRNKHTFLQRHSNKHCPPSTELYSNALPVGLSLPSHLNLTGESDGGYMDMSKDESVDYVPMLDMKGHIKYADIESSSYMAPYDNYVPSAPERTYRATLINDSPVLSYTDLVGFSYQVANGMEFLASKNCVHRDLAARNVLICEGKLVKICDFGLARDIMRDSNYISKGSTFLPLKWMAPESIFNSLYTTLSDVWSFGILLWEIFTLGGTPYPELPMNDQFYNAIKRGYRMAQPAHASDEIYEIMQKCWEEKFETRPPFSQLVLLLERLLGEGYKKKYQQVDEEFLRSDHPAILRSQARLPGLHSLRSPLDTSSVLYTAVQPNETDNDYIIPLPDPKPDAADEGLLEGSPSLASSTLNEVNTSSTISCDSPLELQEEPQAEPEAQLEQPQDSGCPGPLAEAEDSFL
Sequence of VEGFR2, unphosphorylated (P35968 whole entry, looked up): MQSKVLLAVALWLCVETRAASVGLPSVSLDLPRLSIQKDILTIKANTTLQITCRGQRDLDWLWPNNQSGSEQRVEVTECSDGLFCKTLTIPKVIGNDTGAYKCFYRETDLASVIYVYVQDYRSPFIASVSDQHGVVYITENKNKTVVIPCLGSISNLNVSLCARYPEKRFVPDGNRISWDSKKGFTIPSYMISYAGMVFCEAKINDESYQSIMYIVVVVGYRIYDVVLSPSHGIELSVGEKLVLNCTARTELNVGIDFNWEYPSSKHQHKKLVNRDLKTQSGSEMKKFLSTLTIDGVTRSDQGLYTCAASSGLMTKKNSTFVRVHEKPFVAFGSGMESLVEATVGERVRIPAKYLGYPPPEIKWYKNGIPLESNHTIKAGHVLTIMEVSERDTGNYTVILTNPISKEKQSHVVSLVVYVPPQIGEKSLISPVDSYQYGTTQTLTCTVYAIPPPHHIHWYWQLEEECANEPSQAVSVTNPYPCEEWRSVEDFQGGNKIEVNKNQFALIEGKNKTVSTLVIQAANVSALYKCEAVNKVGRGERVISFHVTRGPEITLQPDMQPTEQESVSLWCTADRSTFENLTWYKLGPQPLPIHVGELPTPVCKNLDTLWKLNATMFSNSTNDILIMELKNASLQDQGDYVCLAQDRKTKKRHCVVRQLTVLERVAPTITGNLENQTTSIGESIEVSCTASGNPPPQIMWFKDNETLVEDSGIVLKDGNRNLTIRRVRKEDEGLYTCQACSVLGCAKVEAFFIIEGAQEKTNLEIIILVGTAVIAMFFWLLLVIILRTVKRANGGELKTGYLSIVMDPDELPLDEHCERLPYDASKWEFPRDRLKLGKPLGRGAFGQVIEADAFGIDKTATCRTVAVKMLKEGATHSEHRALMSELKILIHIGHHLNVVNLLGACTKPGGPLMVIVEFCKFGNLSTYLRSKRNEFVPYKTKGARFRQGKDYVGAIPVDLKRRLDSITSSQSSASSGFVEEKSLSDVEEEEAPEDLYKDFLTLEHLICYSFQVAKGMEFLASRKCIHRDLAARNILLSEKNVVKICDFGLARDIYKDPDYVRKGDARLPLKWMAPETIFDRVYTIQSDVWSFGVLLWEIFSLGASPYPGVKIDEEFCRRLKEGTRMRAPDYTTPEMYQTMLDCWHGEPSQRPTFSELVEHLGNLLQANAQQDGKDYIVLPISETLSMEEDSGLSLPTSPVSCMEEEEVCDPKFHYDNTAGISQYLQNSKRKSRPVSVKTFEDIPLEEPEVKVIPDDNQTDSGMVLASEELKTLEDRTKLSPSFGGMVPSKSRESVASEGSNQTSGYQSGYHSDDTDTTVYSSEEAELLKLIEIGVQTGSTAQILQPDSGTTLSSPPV
Sequence of Tb-labeled inactive PDGFRβ (P09619 whole entry, looked up): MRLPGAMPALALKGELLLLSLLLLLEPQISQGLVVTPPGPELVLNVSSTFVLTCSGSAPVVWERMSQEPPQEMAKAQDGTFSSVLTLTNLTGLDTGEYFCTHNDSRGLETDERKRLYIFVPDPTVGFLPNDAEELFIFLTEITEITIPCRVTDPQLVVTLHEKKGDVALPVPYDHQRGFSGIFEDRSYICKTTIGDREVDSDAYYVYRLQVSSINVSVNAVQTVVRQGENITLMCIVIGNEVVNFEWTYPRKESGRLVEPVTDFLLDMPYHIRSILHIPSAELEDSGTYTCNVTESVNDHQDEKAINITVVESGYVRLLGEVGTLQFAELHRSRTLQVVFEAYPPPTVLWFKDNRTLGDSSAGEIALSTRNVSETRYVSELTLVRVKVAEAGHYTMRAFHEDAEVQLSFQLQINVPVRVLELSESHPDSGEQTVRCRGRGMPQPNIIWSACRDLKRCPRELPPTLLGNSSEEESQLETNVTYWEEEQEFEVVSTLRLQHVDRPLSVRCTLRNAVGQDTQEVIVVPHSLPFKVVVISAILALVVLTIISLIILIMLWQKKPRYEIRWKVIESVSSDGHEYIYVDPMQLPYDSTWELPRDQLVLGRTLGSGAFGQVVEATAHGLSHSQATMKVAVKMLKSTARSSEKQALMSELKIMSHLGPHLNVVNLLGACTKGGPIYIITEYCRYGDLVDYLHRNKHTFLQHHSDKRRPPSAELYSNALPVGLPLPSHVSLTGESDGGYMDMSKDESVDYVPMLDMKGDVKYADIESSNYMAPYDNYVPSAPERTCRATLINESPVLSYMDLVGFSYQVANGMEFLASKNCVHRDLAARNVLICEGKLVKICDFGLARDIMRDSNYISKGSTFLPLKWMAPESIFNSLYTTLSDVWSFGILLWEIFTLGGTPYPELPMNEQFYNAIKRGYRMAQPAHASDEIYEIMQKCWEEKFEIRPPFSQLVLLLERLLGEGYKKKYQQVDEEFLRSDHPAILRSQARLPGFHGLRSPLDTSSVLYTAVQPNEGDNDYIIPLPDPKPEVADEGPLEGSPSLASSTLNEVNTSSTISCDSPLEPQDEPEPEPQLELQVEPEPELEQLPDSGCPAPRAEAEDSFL
Sequence of His6-TEV-PDGFRβ (557-1016) (P09619 whole entry, looked up): as above

## Cc1ncc(C(=O)NCCN(C)C2CCOCC2)cc1Nc1nn(C)c2nc(Nc3cnn(C)c3)ncc12 [Example 21, 6-methyl-N-(2-(methyl(tetrahydro-2H-pyran-4-yl)amino)ethyl)-5-((1-methyl-6-((1-methyl-1H-pyrazol-4-yl)amino)-1H-pyrazolo[3,4-d]pyrimidin-3-yl)amino)nicotinamide]
[1]
  IC50: > 7500 nM
[2]
  IC50: 66.3 nM

## COC1CCN(CCNC(=O)c2cnc(C)c(Nc3nn(C)c4nc(Nc5cnn(C)c5)ncc34)c2)CC1 [Example 22, N-(2-(4-methoxypiperidin-1-yl)ethyl)-6-methyl-5-((1-methyl-6-((1-methyl-1H-pyrazol-4-yl)amino)-1H-pyrazolo[3,4-d]pyrimidin-3-yl)amino)nicotinamide]
[1]
  IC50: > 7500 nM
[2]
  IC50: 88.7 nM

## Cc1ncc(C(=O)NCCN2CCS(=O)(=O)CC2)cc1Nc1nn(C)c2nc(Nc3cnn(C)c3)ncc12 [Example 23, N-(2-(1,1-dioxidothiomorpholino)ethyl)-6-methyl-5-((1-methyl-6-((1-methyl-1H-pyrazol-4-yl)amino)-1H-pyrazolo[3,4-d]pyrimidin-3-yl)amino)nicotinamide]
[1]
  IC50: > 7500 nM
[2]
  IC50: 294 nM

## Cc1ncc(C(=O)NCCN2CCOCC23CC3)cc1Nc1nn(C)c2nc(Nc3cnn(C)c3)ncc12 [Example 24, N-(2-(7-oxa-4-azaspiro[2.5]octan-4-yl)ethyl)-6-methyl-5-((1-methyl-6-((1-methyl-1H-pyrazol-4-yl)amino)-1H-pyrazolo[3,4-d]pyrimidin-3-yl)amino)nicotinamide]
[1]
  IC50: > 7500 nM
[2]
  IC50: 22.1 nM

## COCC1CCCN1CCNC(=O)c1cnc(C)c(Nc2nn(C)c3nc(Nc4cnn(C)c4)ncc23)c1 (stereo not shown) [Example 25, N-(2-(2-(methoxymethyl)pyrrolidin-1-yl)ethyl)-6-methyl-5-((1-methyl-6-((1-methyl-1H-pyrazol-4-yl)amino)-1H-pyrazolo[3,4-d]pyrimidin-3-yl)amino)nicotinamide]
[1]
  IC50: > 7500 nM
[2]
  IC50: 12.9 nM

## Cc1ncc(C(=O)NCCN2CC3COCC3C2)cc1Nc1nn(C)c2nc(Nc3cnn(C)c3)ncc12 (stereo not shown) [Example 26, 6-methyl-5-((1-methyl-6-((1-methyl-1H-pyrazol-4-yl)amino)-1H-pyrazolo[3,4-d]pyrimidin-3-yl)amino)-N-(2-(tetrahydro-1H-furo[3,4-c]pyrrol-5(3H)-yl)ethyl)nicotinamide]
[1]
  IC50: > 7500 nM
[2]
  IC50: 92.5 nM

## Cc1ncc(C(=O)NCCN2CCCC2(C)C)cc1Nc1nn(C)c2nc(NC3CCS(=O)(=O)CC3)ncc12 [Example 45, N-(2-(2,2-dimethylpyrrolidin-1-yl)ethyl)-5-((6-((1,1-dioxido-tetrahydro-2H-thiopyran-4-yl)amino)-1-methyl-1H-pyrazolo[3,4-d]pyrimidin-3-yl)amino)-6-methylnicotinamide]
[3]
  IC50: 1640 nM
[4]
  IC50: 51 nM
[1]
  IC50: > 10000 nM

## Cn1nc(Nc2cc(C(=O)NCCN3CCCC3(C)C)ccc2F)c2cnc(Nc3ccnnc3)nc21 [Example 50, N-(2-(2,2-dimethylpyrrolidin-1-yl)ethyl)-4-fluoro-3-((1-methyl-6-(pyridazin-4-ylamino)-1H-pyrazolo[3,4-d]pyrimidin-3-yl)amino)benzamide]
[1]
  IC50: > 7500 nM
[2]
  IC50: 45.8 nM

## Cc1ncc(C(=O)NCCN2CCCC23CC3)cc1Nc1nn(C)c2nc(Nc3cnn(C)c3)ncc12 [Example 53, N-(2-(4-azaspiro[2.4]heptan-4-yl)ethyl)-6-methyl-5-((1-methyl-6-((1-methyl-1H-pyrazol-4-yl)amino)-1H-pyrazolo[3,4-d]pyrimidin-3-yl)amino)nicotinamide]
[1]
  IC50: 4270 nM
[2]
  IC50: 6.2 nM

## Cc1ncc(C(=O)NCCN2CCOC3(CC3)C2)cc1Nc1nn(C)c2nc(Nc3cnn(C)c3)ncc12 [Example 54, N-(2-(4-oxa-7-azaspiro[2.5]octan-7-yl)ethyl)-6-methyl-5-((1-methyl-6-((1-methyl-1H-pyrazol-4-yl)amino)-1H-pyrazolo[3,4-d]pyrimidin-3-yl)amino)nicotinamide]
[1]
  IC50: 4730 nM
[2]
  IC50: 36.3 nM

## Cc1ncc(C(=O)NCCN2CC[C@@H](C)C2)cc1Nc1nn(C)c2nc(Nc3cncnc3)ncc12 [Example 59, (R)-6-methyl-5-((1-methyl-6-(pyrimidin-5-ylamino)-1H pyrazolo-[3,4-d]pyrimidin-3-yl)amino)-N-(2-(3-methylpyrrolidin-1-yl)ethyl)nicotinamide]
[1]
  IC50: > 7500 nM
[2]; A10 cells, 3 hours compound, 15 ng/mL PDGFbb for 10 minutes, read-out: PDGFR Cellular IC50
  IC50: 190 nM

## Cc1ncc(C(=O)NCCN2CCC3(CCC3)C2)cc1Nc1nn(C)c2nc(Nc3cnn(C)c3)ncc12 [Example 83, N-(2-(6-azaspiro[3.4]octan-6-yl)ethyl)-6-methyl-5-((1-methyl-6-((1-methyl-1H-pyrazol-4-yl)amino)-1H-pyrazolo[3,4-d]pyrimidin-3-yl)amino)nicotinamide]
[1]
  IC50: > 7500 nM
[2]
  IC50: 26.2 nM
